Reference: US20260015325A1, “ALKOXY HETEROARYL- CARBOXAMIDE OR THIOAMIDE COMPOUNDS” (SYNGENTA CROP PROTECTION AG, priority 2022, published 2026)

Key:
Type in all cases: in vivo
[1] = system: Tetranychus urticae (Two-Spotted Spider Mite); test: whole plant or invertebrate; details: foliar, 192 h, application rate of 200 ppm, mixed population (mobile stages) on sprayed bean leaf discs, 8 days after infestation, read-out: mortality
Procedure: Example B11: Tetranychus urticae (Two-Spotted Spider Mite): Feeding/Contact Activity
Bean leaf discs on agar in 24-well microtiter plates were sprayed with aqueous test solutions prepared from 10′000 ppm DMSO stock solutions. After drying the leaf discs were infested with a mite population of mixed ages. The samples were assessed for mortality on mixed population (mobile stages) 8 days after infestation.

[2] = system: Bemisia tabaci (Cotton White Fly); test: Bemisia tabaci (Cotton White Fly): feeding/contact activity, cotton leaf discs; details: foliar, 144 h, application rate of 200 ppm, adult white flies on sprayed cotton leaf discs, 6 days after incubation, read-out: mortality
Procedure: Example B1: Bemisia tabaci (Cotton White Fly): Feeding/Contact Activity
Cotton leaf discs were placed on agar in 24-well microtiter plates and sprayed with aqueous test solutions prepared from 10′000 ppm DMSO stock solutions. After drying the leaf discs were infested with adult white flies. The samples were checked for mortality 6 days after incubation.

[3] = system: Myzus persicae (Green Peach Aphid); test: Myzus persicae (Green Peach Aphid): intrinsic activity, sucrose solution; details: 120 h, test rate of 12 ppm, intrinsic, mixed with sucrose solution under Parafilm, 5 days after infestation, read-out: mortality
Procedure, shortened: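 Compounds from 10′000 ppm DMSO stocks mixed with sucrose solution in wells sealed with Parafilm; aphid-infested pea seedlings placed on the Parafilm and the assembly inverted so aphids feed through the membrane. Mortality assessed 5 days after infestation.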

[4] = system: Plutella xylostella (Diamond Back Moth); test: Plutella xylostella (Diamond Back Moth), artificial diet; details: 192 h, application rate of 200 ppm, eggs on treated artificial diet, 8 days after infestation, read-out: effect in at least one of the two categories (mortality or growth inhibition)
Procedure: Example B9: Plutella xylostella (Diamond Back Moth)
24-well microtiter plates with artificial diet were treated with aqueous test solutions prepared from 10′000 ppm DMSO stock solutions by pipetting. After drying, Plutella eggs were pipetted through a plastic stencil onto a gel blotting paper and the plate was closed with it. The samples were assessed for mortality and growth inhibition in comparison to untreated samples 8 days after infestation.

[5] = system: Diabrotica balteata (Corn Root Worm); test: whole plant or invertebrate; details: 96 h, application rate of 200 ppm, L2 larvae on sprayed maize sprouts, 4 days after infestation, read-out: effect in at least one of the two categories (mortality or growth inhibition)
Procedure: Example B3: Diabrotica balteata (Corn Root Worm)
Maize sprouts placed onto an agar layer in 24-well microtiter plates were treated with aqueous test solutions prepared from 10′000 ppm DMSO stock solutions by spraying. After drying, the plates were infested with L2 larvae (6 to 10 per well). The samples were assessed for mortality and growth inhibition in comparison to untreated samples 4 days after infestation.

[6] = system: Euschistus heros (Neotropical Brown Stink Bug); test: Euschistus heros (Neotropical Brown Stink Bug), soybean leaves; details: 120 h, application rate of 200 ppm, N2 nymphs on sprayed soybean leaves, 5 days after infestation, read-out: effect in at least one of the two categories (mortality or growth inhibition)
Procedure: Example B4: Euschistus heros (Neotropical Brown Stink Bug)
Soybean leaves on agar in 24-well microtiter plates were sprayed with aqueous test solutions prepared from 10′000 ppm DMSO stock solutions. After drying the leaves were infested with N2 nymphs. The samples were assessed for mortality and growth inhibition in comparison to untreated samples 5 days after infestation.

[7] = system: Frankliniella occidentalis (Western Flower Thrips); test: Frankliniella occidentalis (Western Flower Thrips): feeding/contact activity, sunflower leaf discs; details: foliar, 168 h, application rate of 200 ppm, mixed ages on sprayed sunflower leaf discs, 7 days after infestation
Procedure: Example B5: Frankliniella occidentalis (Western Flower Thrips): Feeding/Contact Activity
Sunflower leaf discs were placed on agar in 24-well microtiter plates and sprayed with aqueous test solutions prepared from […] stock solutions. After drying the leaf discs were infested with a Frankliniella population of mixed ages. The samples were assessed for mortality 7 days after infestation.

[8] = system: Myzus persicae (Green Peach Aphid); test: Myzus persicae (Green Peach Aphid): systemic activity, pea seedlings; details: 144 h, test rate of 24 ppm, systemic, roots of infested pea seedlings in test solution, 6 days, read-out: mortality
Procedure: Example B7: Myzus persicae (Green Peach Aphid). Systemic Activity
Roots of pea seedlings infested with an aphid population of mixed ages were placed directly into aqueous test solutions prepared from 10′000 DMSO stock solutions. The samples were assessed for mortality 6 days after placing seedlings into test solutions.

[9] = system: Myzus persicae (Green Peach Aphid); test: Myzus persicae (Green Peach Aphid): feeding/contact activity, sunflower leaf discs; details: foliar, 144 h, application rate of 200 ppm, mixed ages on sprayed sunflower leaf discs, 6 days after infestation, read-out: mortality
Procedure: Example B6: Myzus persicae (Green Peach Aphid): Feeding/Contact Activity
Sunflower leaf discs were placed onto agar in a 24-well microtiter plate and sprayed with aqueous test solutions prepared from 10′000 ppm DMSO stock solutions. After drying, the leaf discs were infested with an aphid population of mixed ages. The samples were assessed for mortality 6 days after infestation.

Spodoptera littoralis = Spodoptera littoralis (Egyptian Cotton Leaf Worm), cotton leaf discs; details: foliar, 72 h, application rate of 200 ppm, L1 larvae on sprayed cotton leaf discs, 3 days after infestation, read-out: control (at least one of mortality, anti-feedant effect, growth inhibition)
Procedure: Example B10: Spodoptera littoralis (Eaytian Cotton Leaf Worm)
Cotton leaf discs were placed onto agar in 24-well microtiter plates and sprayed with aqueous test solutions prepared from 10′000 ppm DMSO stock solutions. After drying the leaf discs were infested with five L1 larvae. The samples were assessed for mortality, anti-feeding effect, and growth inhibition in comparison to untreated samples 3 days after infestation. Control of Spodoptera littoralis by a test sample is given when at least one of the categories mortality, anti-feedant effect, and growth inhibition is higher than the untreated sample.

C[C@@H](COc1cnc(Cl)c(C(=O)Nc2ccc(F)cc2F)c1)NS(=O)(=O)C(F)(F)F [Compound P-23, 2-chloro-N-(2,4-difluorophenyl)-5-[(2S)-2-(trifluoromethylsulfonylamino)propoxy]pyridine-3-carboxamide]
≥ 80%: mortality at 200 ppm [1] | mortality at 200 ppm [2] | mortality at 12 ppm [3] | percent effect (mortality or growth inhibition) at 200 ppm [4]

CCN1OC[C@@H](NC(=O)c2cc(OC[C@H](C)NS(=O)(=O)C(F)(F)F)ncc2Br)C1=O [Compound P-84, 5-bromo-N-[(4R)-2-ethyl-3-oxo-isoxazolidin-4-yl]-2-[(2S)-2-(trifluoromethylsulfonylamino)propoxy]pyridine-4-carboxamide]
≥ 80%: percent effect (mortality or growth inhibition) at 200 ppm [5]

C[C@@H](COc1cnc(Cl)c(C(=O)NC2(C#N)CC2)c1)N(C(=O)OC(C)(C)C)S(=O)(=O)C(F)(F)F [Compound P-6, tert-butyl N-[(1S)-2-[[6-chloro-5-[(1-cyanocyclopropyl)carbamoyl]-3-pyridyl]oxy]-1-methyl-ethyl]-N-(trifluoromethylsulfonyl)carbamate]
≥ 80%: mortality at 200 ppm [1] | percent effect (mortality or growth inhibition) at 200 ppm [6] | mortality at 200 ppm [2] | mortality at 200 ppm [7] | mortality at 24 ppm [8] | mortality at 12 ppm [3] | mortality at 200 ppm [9]

CC(=O)N([C@@H](C)COc1cnc(Cl)c(C(=O)NC2CC2)c1)S(=O)(=O)C(F)(F)F [Compound P-43, 5-[(2S)-2-[acetyl(trifluoromethylsulfonyl)amino]propoxy]-2-chloro-N-cyclopropyl-pyridine-3-carboxamide]
≥ 80%: mortality at 200 ppm [1] | percent effect (mortality or growth inhibition) at 200 ppm [6] | mortality at 200 ppm [2] | mortality at 200 ppm [7] | mortality at 24 ppm [8] | mortality at 12 ppm [3] | mortality at 200 ppm [9]

Cc1cc(F)ccc1NC(=O)c1cc(OC[C@H](C)NS(=O)(=O)C(F)(F)F)cnc1Cl [Compound P-60, 2-chloro-N-(4-fluoro-2-methyl-phenyl)-5-[(2S)-2-(trifluoromethylsulfonylamino)propoxy]pyridine-3-carboxamide]
≥ 80%: mortality at 200 ppm [1] | mortality at 12 ppm [3] | percent control (mortality, anti-feedant effect or growth inhibition) at 200 ppm (Spodoptera littoralis) | percent effect (mortality or growth inhibition) at 200 ppm [4]

C[C@@H](COc1cnc(Cl)c(C(=O)NC2CC2)c1)NS(=O)(=O)C(F)(F)F [Compound P-1, 2-chloro-N-cyclopropyl-5-[(2S)-2-(trifluoromethylsulfonylamino)propoxy]pyridine-3-carboxamide]
≥ 80%: mortality at 200 ppm [1] | percent effect (mortality or growth inhibition) at 200 ppm [6] | percent effect (mortality or growth inhibition) at 200 ppm [5] | mortality at 200 ppm [2] | mortality at 200 ppm [7] | mortality at 24 ppm [8] | mortality at 12 ppm [3] | mortality at 200 ppm [9] | percent effect (mortality or growth inhibition) at 200 ppm [4]

Cc1ncc(OC[C@H](C)NS(=O)(=O)C(F)(F)F)cc1C(=O)NC(C)c1ncnn1-c1ccc(C#N)cn1 (stereo partly drawn) [Compound P-27, N-[1-[2-(5-cyano-2-pyridyl)-1,2,4-triazol-3-yl]ethyl]-2-methyl-5-[(2S)-2-(trifluoromethylsulfonylamino)propoxy]pyridine-3-carboxamide]
≥ 80%: percent effect (mortality or growth inhibition) at 200 ppm [4]

C[C@@H](COc1cnc(Cl)c(C(=O)Nc2ccc(Cl)cc2F)c1)NS(=O)(=O)C(F)(F)F [Compound P-25, 2-chloro-N-(4-chloro-2-fluoro-phenyl)-5-[(2S)-2-(trifluoromethylsulfonylamino)propoxy]pyridine-3-carboxamide]
≥ 80%: mortality at 200 ppm [1] | percent effect (mortality or growth inhibition) at 200 ppm [4]

Cc1ncc(OC[C@H](C)NS(=O)(=O)C(F)(F)F)cc1C(=O)NOCC1CC1 [Compound P-41, N-(cyclopropylmethoxy)-2-methyl-5-[(2S)-2-(trifluoromethylsulfonylamino)propoxy]pyridine-3-carboxamide]
≥ 80%: percent effect (mortality or growth inhibition) at 200 ppm [4]

Cc1nc(C(C)NC(=O)c2cc(OC[C@H](C)NS(=O)(=O)C(F)(F)F)cnc2C)no1 (stereo partly drawn) [Compound P-38, 2-methyl-N-[1-(5-methyl-1,2,4-oxadiazol-3-yl)ethyl]-5-[(2S)-2-(trifluoromethylsulfonylamino)propoxy]pyridine-3-carboxamide]
≥ 80%: percent effect (mortality or growth inhibition) at 200 ppm [4]

C[C@@H](COc1cnc(Cl)c(C(=O)Nc2ccc(C#N)cc2F)c1)NS(=O)(=O)C(F)(F)F [Compound P-22, 2-chloro-N-(4-cyano-2-fluoro-phenyl)-5-[(2S)-2-(trifluoromethylsulfonylamino)propoxy]pyridine-3-carboxamide]
≥ 80%: mortality at 200 ppm [1] | percent effect (mortality or growth inhibition) at 200 ppm [5]

COCN([C@@H](C)COc1cnc(Cl)c(C(=O)NC2CC2)c1)S(=O)(=O)C(F)(F)F [Compound P-64, 2-chloro-N-cyclopropyl-5-[(2S)-2-[methoxymethyl(trifluoromethylsulfonyl)amino]propoxy]pyridine-3-carboxamide]
≥ 80%: mortality at 200 ppm [1] | percent effect (mortality or growth inhibition) at 200 ppm [6] | percent effect (mortality or growth inhibition) at 200 ppm [5] | mortality at 200 ppm [2] | mortality at 200 ppm [7] | mortality at 24 ppm [8] | mortality at 12 ppm [3] | mortality at 200 ppm [9]

C[C@@H](COc1cnc(Cl)c(C(=O)NC23CC(C2)C3)c1)NS(=O)(=O)C(F)(F)F [Compound P-5, N-(1-bicyclo[1.1.1]pentanyl)-2-chloro-5-[(2S)-2-(trifluoromethylsulfonylamino)propoxy]pyridine-3-carboxamide]
≥ 80%: mortality at 200 ppm [1] | mortality at 24 ppm [8] | mortality at 12 ppm [3] | mortality at 200 ppm [9] | percent effect (mortality or growth inhibition) at 200 ppm [4]

C[C@@H](COc1cnc(Cl)c(C(=O)NC2(C#N)CC2)c1)N(C)S(=O)(=O)C(F)(F)F [Compound P-7, 2-chloro-N-(1-cyanocyclopropyl)-5-[(2S)-2-[methyl(trifluoromethylsulfonyl)amino]propoxy]pyridine-3-carboxamide]
≥ 80%: percent effect (mortality or growth inhibition) at 200 ppm [5] | mortality at 200 ppm [2] | mortality at 200 ppm [7] | mortality at 24 ppm [8] | mortality at 12 ppm [3]

CCN1OC[C@@H](NC(=O)c2cc(OC[C@H](C)NS(=O)(=O)C(F)(F)F)cnc2Cl)C1=O [Compound P-65, 2-chloro-N-[(4R)-2-ethyl-3-oxo-isoxazolidin-4-yl]-5-[(2S)-2-(trifluoromethylsulfonylamino)propoxy]pyridine-3-carboxamide]
≥ 80%: mortality at 200 ppm [1] | percent control (mortality, anti-feedant effect or growth inhibition) at 200 ppm (Spodoptera littoralis)
